According to patent US7053123B2, “Substituted (e)-styryl benzylsulfones for treating proliferative disorders” (Temple University-of the Commonwealth System of Higher …, priority 2000, dated 2006):

Key:
Assay type in all cases: cell-based
[1] = test system: colorectal carcinoma cell line DLD-1; test: Tumor cell viability assay (Trypan blue exclusion), DLD-1; details: DLD-1 cell line, tested at 5, 10 and 20 μM, 96 hours, read-out: G150 (the concentration resulting in 50% growth inhibition)
Excerpt: (§1) The effect of the Example 13 compound on the growth of normal fibroblasts and on tumor cells of prostate, colon, lung, brain, pancreas and breast origin was examined utilizing the following cell lines: prostate carcinoma cell line DU-145; colorectal carcinoma cell line DLD-1; non-small cell lung carcinoma cell line H157; pancreatic carcinoma cell line MIA-Pa-Ca-2; glioblastoma cell line U87; and breast adenocarcinoma cell line BT-20. BT-20 is an estrogen-unresponsive cell line. NIH/3T3 and HFL are normal murine and human fibroblasts, respectively. BT-20, DLD-1 and H157 were grown in Dulbecco's modified Eagle's medium (DMEM) containing 10% fetal bovine serum supplemented with penicillin and streptomycin. DU145 was cultured in RPMI with 10% fetal bovine serum containing penicillin and streptomycin. […]
(§2) Cells were treated with the Example 13 compound at concentrations of 100, 250, 500 and 1000 nM. Cell viability was determined after 96 hours by the Trypan blue exclusion method. […] The drug G150 (the concentration resulting in 50% growth inhibition) was calculated as 200 nM for the MIA-Pa-Ca-2 cell line.
(§3) The procedure of Example 40 was followed for the compound of Example 37, on cell lines DLD-1, H157 and BT20, at 5, 10 and 20 μM concentrations. The drug G150 was calculated for each cell line as follows: DLD, 8 μM; H157, 15 μM; and BT20, 15 μM.

[2] = test system: non-small cell lung carcinoma cell line H157; test: Tumor cell viability assay (Trypan blue exclusion), H157; details: tested at 5, 10 and 20 μM, 96 hours, read-out: G150 (the concentration resulting in 50% growth inhibition)
Excerpt: as §1, §2, §3

[3] = test system: breast adenocarcinoma cell line BT-20; test: Tumor cell viability assay (Trypan blue exclusion), BT-20; details: BT20 cell line, tested at 5, 10 and 20 μM, 96 hours, read-out: G150 (the concentration resulting in 50% growth inhibition)
Excerpt: as §1, §2, §3

[4] = test system: pancreatic carcinoma cell line MIA-Pa-Ca-2; test: Tumor cell viability assay (Trypan blue exclusion), MIA-Pa-Ca-2; details: MIA-Pa-Ca-2 cell line, 96 hours, vs DMSO-treated cells, read-out: G150 (the concentration resulting in 50% growth inhibition)
Excerpt: (§4) The effect of the Example 13 compound on the growth of normal fibroblasts and on tumor cells of prostate, colon, lung, brain, pancreas and breast origin was examined utilizing the following cell lines: prostate carcinoma cell line DU-145; colorectal carcinoma cell line DLD-1; non-small cell lung carcinoma cell line H157; pancreatic carcinoma cell line MIA-Pa-Ca-2; glioblastoma cell line U87; and breast adenocarcinoma cell line BT-20. BT-20 is an estrogen-unresponsive cell line. NIH/3T3 and HFL are normal murine and human fibroblasts, respectively. BT-20, DLD-1 and H157 were grown in Dulbecco's modified Eagle's medium (DMEM) containing 10% fetal bovine serum supplemented with penicillin and streptomycin. DU145 was cultured in RPMI with 10% fetal bovine serum containing penicillin and streptomycin. NIH3T3 and HFL cells were grown in DMEM containing 10% calf serum supplemented with penicillin and streptomycin. Cells were plated at density levels of 1.0×10^5 cells per well in six-well plates. Cell cultures were maintained at 37° C. in a humidified atmosphere of 5% CO2.
as §2

[5] = test system: HFL normal human fibroblasts; test: Normal fibroblast viability assay (Trypan blue exclusion), HFL; details: normal cells HFL; treated at 100-1000 nM; 96 hours
Excerpt: as §4, §2

[6] = test system: NIH/3T3 normal murine fibroblasts; test: Normal fibroblast viability assay (Trypan blue exclusion), NIH 3T3; details: normal cells NIH 3T3; treated at 100-1000 nM; 96 hours
Excerpt: as §4, §2

| Compound | IC50 [1] [µM] | IC50 [2] [µM] | IC50 [3] [µM] | IC50 [4] [µM] | cell death [5] | growth inhibition [5] [%] | cell death [6] | growth inhibition [6] [%] |
| --- | --- | --- | --- | --- | --- | --- | --- | --- |
| O=[N+]([O-])c1ccccc1/C=C/S(=O)(=O)Cc1ccc(Cl)cc1Cl [Example 37, (E)-2-Nitrostyryl-2,4-dichlorobenzylsulfone] | 8 | 15 | 15 | – | – | – | – | – |
| (E)-2,6-Dimethoxystyryl-4-methoxybenzylsulfone [Example 13] | – | – | – | 0.2 | no appreciable cell death | 5 | no appreciable cell death | 5 |
